Test results as given in US9980948B2, “Azaindole derivative having AMPK-activating activity” (Shionogi & Co., Ltd., priority 2014, dated 2018).
Where two headings read alike, the source gives them in different places.

Molecular target: T1, Human AMPK α2β2γ1 (Homo sapiens, UniProt O43741+P54646)
T1 construct: The full length cDNAs of human AMPK β2 (NM_005399.3) and human AMPK α2 (NM_006252.3); The full length cDNAs of human AMPK β2 (NM_005399.3); the full length cDNA of human AMPK γ1 (NM_002733.3) had been inserted into pET28b(+); 6xHis (N); made in house; host or cells: Escherichia coli BL21 CodonPlus (DE3)-RTL (AMPK); BL21 Star (DE3) (CaMKKβ)
T1 sequence (P54646 whole entry): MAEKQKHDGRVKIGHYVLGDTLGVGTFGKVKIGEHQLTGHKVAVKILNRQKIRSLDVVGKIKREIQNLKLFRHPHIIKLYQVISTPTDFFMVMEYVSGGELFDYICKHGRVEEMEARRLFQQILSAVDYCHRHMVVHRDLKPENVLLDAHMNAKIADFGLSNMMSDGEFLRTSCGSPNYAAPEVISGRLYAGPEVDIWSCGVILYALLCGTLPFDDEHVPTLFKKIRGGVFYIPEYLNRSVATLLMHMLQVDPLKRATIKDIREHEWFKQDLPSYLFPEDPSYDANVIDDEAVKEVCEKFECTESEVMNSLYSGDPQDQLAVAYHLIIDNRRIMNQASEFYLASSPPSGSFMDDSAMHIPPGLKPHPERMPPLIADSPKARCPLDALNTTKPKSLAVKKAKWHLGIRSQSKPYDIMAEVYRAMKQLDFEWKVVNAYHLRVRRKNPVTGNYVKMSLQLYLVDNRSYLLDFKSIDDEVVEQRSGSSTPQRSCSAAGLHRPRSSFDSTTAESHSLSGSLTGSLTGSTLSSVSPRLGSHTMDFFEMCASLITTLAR
T1 sequence (O43741 whole entry): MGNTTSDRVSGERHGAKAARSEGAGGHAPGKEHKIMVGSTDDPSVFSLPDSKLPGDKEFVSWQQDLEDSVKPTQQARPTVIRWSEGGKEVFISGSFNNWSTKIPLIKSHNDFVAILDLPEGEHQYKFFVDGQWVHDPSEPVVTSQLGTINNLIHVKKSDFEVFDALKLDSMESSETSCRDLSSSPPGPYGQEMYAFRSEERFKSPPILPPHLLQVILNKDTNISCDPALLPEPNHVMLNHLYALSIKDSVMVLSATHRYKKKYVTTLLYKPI
T1 sequence (P54619 whole entry partner): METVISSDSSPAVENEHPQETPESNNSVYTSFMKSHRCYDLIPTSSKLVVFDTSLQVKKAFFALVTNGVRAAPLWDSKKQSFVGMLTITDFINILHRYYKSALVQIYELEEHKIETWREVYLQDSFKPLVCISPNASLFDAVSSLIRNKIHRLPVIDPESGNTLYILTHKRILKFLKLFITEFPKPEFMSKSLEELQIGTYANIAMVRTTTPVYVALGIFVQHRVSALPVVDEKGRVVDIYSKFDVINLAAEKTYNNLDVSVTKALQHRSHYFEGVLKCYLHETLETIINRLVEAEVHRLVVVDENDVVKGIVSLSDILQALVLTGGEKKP
Experiment: Test Example 2: evaluation of an activator for AMP-activated protein kinase (AMPK), human AMPK α2β2γ1 phosphorylated with CaMKK2, FL-Peptide 7 mobility shift
Format: biochemical
Details: for Emax: read-out: Emax (maximum rate of increase in activity within the measurement range)
Procedure: The full length cDNAs of human AMPK β2 (NM_005399.3) and human AMPK α2 (NM_006252.3) were inserted into the MCS1 and MCS2 of the pETDuet-1 vector to prepare a human AMPK β2 and human AMPK α2 (6× His tag at the 5′ terminus) expressing plasmid. The plasmid was cotransfected with an expression plasmid, in which the full length cDNA of human AMPK γ1 (NM_002733.3) had been inserted into pET28b(+), into BL21 CodonPlus (DE3)-RTL to obtain an expression strain. The expression strain was cultured in TB medium, followed by induction with 0.5 mM IPTG, and cultured at 25° C. for 3 hours and then harvested.
An expression vector, in which the full length cDNA of human CAMKK β (NM_172226.1) had been inserted into pGEX-6P-3, was transfected into BL21 Star (DE3). The expression strain was cultured in TB medium, followed by induction with 0.5 mM IPTG, and cultured at 25° C. for 3 hours and then harvested.
Thus, phosphorylation treatment was carried out as pretreatment.
Human AMPK α2β2γ1 in an amount to give a conversion rate of approximately 10% by reaction for 2 hours, and CaMKK2 in an amount capable of sufficiently imparting activity to AMPK for one hour were mixed in a buffer solution consisting of a 50 mM HEPES-NaOH buffer solution (pH 7.0), 100 mM NaCl, 5 mM magnesium chloride, 0.1% bovine serum albumin, 0.2 mM sodium orthovanadate(V), 1 mM ethylene glycol-bis(2-aminoethyl ether)-N,N,N′,N′-tetraacetic acid (EGTA), 5 mM disodium β-glycerophosphate, 1 mM dithiothreitol and 0.2 mM ATP, and the obtained liquid was left to stand at 25° C. for 1 to 1.5 hours to sufficiently phosphorylate AMPK.
The obtained liquid was left to stand for 10 minutes.
The obtained liquid was allowed to react at 25° C. for 2 hours, and 10 μl of 20 mM EDTA was then added thereto to stop the reaction.
To detect phosphorylated fluorescent substrates, the reaction liquid was applied to a measuring device, LabChip EZ Reader II manufactured by Caliper Life Science, Inc., for detecting fluorescence by using differences in mobility due to differences in charge. The setting conditions for the device were pressure, −1.5 PSI; upstream voltage, −2250 V; downstream voltage, −400 V; post sample buffer sip time, 40 seconds; final delay, 120 seconds; and peak order, Product First.
A conversion rate was calculated from the peak heights of the resulting substrate and product. The conversion rate when not containing a compound was used as a control, and a concentration dependent curve was made by plotting the rate of increase in activity to the control at each concentration of a compound.

[1] = human AMPK α2β2γ1, 0.2 mM ATP final, 25° C., 2 hours
[2] = human AMPK α2β2γ1, relative to control (100%)

Row | SMILES | EC150 (compound concentration showing 150% relative to the control (100%)) [1] [nM] | Emax [2] [%] | Emax (maximum rate of increase in activity within the measurement range) [2] [%] | EC150 (compound concentration showing 150% relative to the control (100%)) [nM] | Emax (maximum rate of increase in activity within the measurement range) [%]
1 | N#Cc1c(O[C@@H]2CO[C@H]3[C@@H]2OC[C@H]3O)[nH]c2cc(Cl)c(OCc3c(F)cccc3F)nc12 [Compound I-1-1] | 330 | 660 |  |  | 
2 | N#Cc1cc2[nH]c(O[C@@H]3CO[C@H]4[C@@H]3OC[C@H]4O)cc2nc1-c1ccc(N2CCOCC2)cc1 [Compound I-1-4] | 8.3 | 849 |  |  | 
3 | O[C@@H]1CO[C@H]2[C@@H]1OC[C@H]2Oc1cc2nc(-c3c(F)cc(C4=CCOCC4)cc3F)c(F)cc2[nH]1 [Compound I-1-6] | 2 | 647 |  |  | 
4 | N#Cc1c(O[C@@H]2CO[C@H]3[C@@H]2OC[C@H]3O)[nH]c2cc(Cl)c(-c3ccc(-c4ccccc4)cc3)nc12 [Compound I-1-7] | 59 | 805 |  |  | 
5 | O=C(O)C1CC=C(c2ccc(-c3nc4cc(O[C@H]5CCOC5)[nH]c4cc3Cl)cc2)CC1 (some centres unmarked) [Compound I-1-8] | 4.1 | 338 |  |  | 
6 | O=C(CO)N1CC=C(c2cc(F)c(-c3nc4cc(O[C@@H]5CO[C@H]6[C@@H]5OC[C@H]6O)[nH]c4cc3Cl)c(F)c2)CC1 [Compound I-1-10] | 1.8 | 751 |  |  | 
7 | O[C@@H]1CO[C@H]2[C@@H]1OC[C@H]2Oc1[nH]c2cc(Cl)c(-c3ccc(N4CCOCC4)cc3)nc2c1Cl [Compound I-1-11] | 3.9 | 770 |  |  | 
8 | N#Cc1c(O[C@@H]2CO[C@H]3[C@@H]2OC[C@H]3O)[nH]c2cc(Cl)c(-c3ccc(C4=CCN(C(=O)CO)CC4)cc3)nc12 [Compound I-1-12] | 23 | 779 |  |  | 
9 | O[C@@H]1CO[C@H]2[C@@H]1OC[C@H]2Oc1[nH]c2cc(Cl)c(-c3c(F)cc(C4=CCOCC4)cc3F)nc2c1Cl [Compound I-1-15] | 53 | 680 |  |  | 
10 | CC(C)(C(=O)O)[C@H]1CC[C@H](Oc2cc3nc(-c4c(F)cc(N5CCOCC5)cc4F)c(Cl)cc3[nH]2)CC1 [Compound I-1-16] | 810 | 204 |  |  | 
11 | OC[C@@H]1C[C@H](Oc2cc3nc(-c4c(F)cc(N5CCOCC5)cc4F)c(Cl)cc3[nH]2)CO1 [Compound I-1-18] | 22 | 776 |  |  | 
12 | O=C(O)C1CC=C(c2ccc(-c3nc4c(Cl)c(O[C@@H]5CO[C@H]6[C@@H]5OC[C@H]6O)[nH]c4cc3Cl)cc2)CC1 (some centres unmarked) [Compound I-1-20] | 2.9 | 746 |  |  | 
13 | O=C(O)C1CC=C(c2cc(F)c(-c3nc4cc(O[C@H]5CCOC5)[nH]c4cc3Cl)c(F)c2)CC1 (some centres unmarked) [Compound I-1-23] | 11 | 341 |  |  | 
14 | O[C@@H]1CO[C@H]2[C@@H]1OC[C@H]2Oc1cc2nc(-c3ccc(N4CCOCC4)cc3F)c(Cl)cc2[nH]1 [Compound I-1-25] | 11 | 768 |  |  | 
15 | CN(C)CCOc1ccc(-c2ccc(-c3nc4c(C#N)c(O[C@@H]5CO[C@H]6[C@@H]5OC[C@H]6O)[nH]c4cc3Cl)cc2)cc1 [Compound I-1-37] | 6 | 859 |  |  | 
16 | COc1cccc(-c2ccc(-c3nc4c(C#N)c(O[C@@H]5CO[C@H]6[C@@H]5OC[C@H]6O)[nH]c4cc3Cl)cc2)c1O [Compound I-1-38] | 1.5 | 841 |  |  | 

Row | SMILES | EC150 (compound concentration showing 150% relative to the control (100%)) [1] [nM] | Emax [2] [%] | Emax (maximum rate of increase in activity within the measurement range) [2] [%] | EC150 (compound concentration showing 150% relative to the control (100%)) [nM] | Emax (maximum rate of increase in activity within the measurement range) [%]
17 | O[C@@H]1CO[C@H]2[C@@H]1OC[C@H]2Oc1cc2nc(-c3ccc(N4CCOCC4)cc3)c(F)cc2[nH]1 [Compound I-1-39] | 5.3 | 788 |  |  | 
18 | CC(C)(C(=O)O)[C@H]1CC[C@H](Oc2cc3nc(-c4ccc(N5CC[C@@H](O)C5)cc4)c(Cl)cc3[nH]2)CC1 [Compound I-1-43] | 98 | 302 |  |  | 
19 | O[C@@H]1CO[C@H]2[C@@H]1OC[C@H]2Oc1[nH]c2cc(F)c(-c3ccc(C4=CCOCC4)cc3)nc2c1Cl [Compound I-1-45] | 13 | 718 |  |  | 
20 | O=C(CO)N1CC=C(c2ccc(-c3nc4cc(O[C@@H]5CO[C@H]6[C@@H]5OC[C@H]6O)[nH]c4cc3F)cc2)CC1 [Compound I-1-50] | 2.4 | 827 |  |  | 
21 | O=C(O)C1CC=C(c2ccc(-c3nc4c(Cl)c(O[C@@H]5CO[C@H](CO)C5)[nH]c4cc3Cl)cc2)CC1 (some centres unmarked) [Compound I-1-55] | 54 | 689 |  |  | 
22 | N#Cc1c(O[C@@H]2CO[C@H]3[C@@H]2OC[C@H]3O)[nH]c2cc(Cl)c(-c3ccc(-c4ccc(-n5cncn5)cc4)cc3)nc12 [Compound I-1-58] | 3.8 | 836 |  |  | 
23 | O[C@@H]1CO[C@H]2[C@@H]1OC[C@H]2Oc1[nH]c2cc(Cl)c(-c3ccc(C4(O)CCC4)cc3)nc2c1Cl [Compound I-1-62] | 5.7 | 851 |  |  | 
24 | C/C(=C\CNC(=O)CO)c1ccc(-c2nc3c(Cl)c(O[C@@H]4CO[C@H]5[C@@H]4OC[C@H]5O)[nH]c3cc2Cl)cc1 [Compound I-1-63] | 6.3 | 791 |  |  | 
25 | O[C@@H]1CO[C@H]2[C@@H]1OC[C@H]2Oc1cc2nc(-c3ccc(N4CCOCC4)cc3)c(C(F)(F)F)cc2[nH]1 [Compound I-2-2] | 38 |  | 511 |  | 
26 | O[C@@H]1CO[C@H]2[C@@H]1OC[C@H]2Oc1cc2nc(-c3ccc(N4CCOCC4)cc3)c(Cl)c(F)c2[nH]1 [Compound I-2-3] | 6.9 | 508 |  |  | 
27 | N#Cc1c(Cl)c(-c2ccc(N3CCOCC3)cc2)nc2cc(O[C@@H]3CO[C@H]4[C@@H]3OC[C@H]4O)[nH]c12 [Compound I-2-7] |  |  |  | 36 | 322
28 | O[C@@H]1CO[C@H]2[C@@H]1OC[C@H]2Oc1[nH]c2cc(Cl)c(-c3ccc(N4CCOCC4)cc3)nc2c1F [Compound I-2-8] | 8.9 |  | 447 |  | 
29 | O[C@@H]1CO[C@H]2[C@@H]1OC[C@H]2Oc1[nH]c2cc(Cl)c(-c3ccc(N4CCOCC4)cc3)nc2c1Br [Compound I-2-9] | 66 |  | 395 |  | 
30 | O[C@@H]1CO[C@H]2[C@@H]1OC[C@H]2Oc1[nH]c2cc(C(F)(F)F)c(-c3ccc(N4CCOCC4)cc3)nc2c1F [Compound I-2-10] | 49 |  | 506 |  | 
31 | Cn1cc(-c2ccc(-c3nc4c(C#N)c(O[C@@H]5CO[C@H]6[C@@H]5OC[C@H]6O)[nH]c4cc3Cl)cc2)cn1 [Compound I-2-11] | 40 | 867 |  |  | 
